Source: a compilation of properties of binary mixtures (doi:10.1016/j.molliq.2020.114841)

Assay: xn = mol fraction of the nth substance listed
Conditions: 101.3 kPa

COCCOCCn1cc[n+](CCC#N)c1.O=S(=O)([N-]S(=O)(=O)C(F)(F)F)C(F)(F)F + CS(C)=O
Conditions | electrical conductivity, 293.15 K [S/m] | electrical conductivity, 303.15 K [S/m] | electrical conductivity, 313.15 K [S/m] | electrical conductivity, 323.15 K [S/m] | viscosity, 293.15 K [mPa·s] | viscosity, 303.15 K [mPa·s] | viscosity, 313.15 K [mPa·s] | viscosity, 323.15 K [mPa·s]
x1 = 0.0989 | 0.002 | 0.0023 | 0.0028 | 0.0034 | 6.1 | 4.244 | 3.145 | 2.453
x1 = 0.1981 | – | 0.0077 | 0.0094 | – | – | 5.65 | 4.14 | –
x1 = 0.2776 | 0.0093 | – | 0.0144 | 0.0193 | 13.52 | – | 6.42 | 5
x1 = 0.3971 | 0.0202 | 0.0243 | 0.031 | 0.043 | 19.5 | 13.05 | 8.55 | 6.4
x1 = 0.5029 | 0.0321 | – | 0.0518 | 0.0698 | 39.8 | – | 16.92 | 12.64
x1 = 0.597 | 0.0411 | 0.051 | 0.0672 | 0.0919 | 53.9 | 33.04 | 22.38 | 16.15
x1 = 0.721 | 0.0589 | 0.0732 | 0.0977 | 0.134 | 64.3 | 36.5 | 24.89 | 17.98
x1 = 0.798 | 0.0885 | 0.111 | – | – | 90.8 | 49.7 | – | –
x1 = 0.89 | 0.0746 | – | – | 0.175 | 145.2 | – | – | 37.5
x1 = 1 | 0.0654 | 0.0831 | 0.112 | 0.158 | 296 | 169 | 103.2 | 74.6

CS(C)=O + CCOCC[n+]1ccn(CCC#N)c1.O=S(=O)([N-]S(=O)(=O)C(F)(F)F)C(F)(F)F
x2 = 0
Conditions | electrical conductivity [S/m] | viscosity [mPa·s]
293.15 K | 0.0006 | 2.48
303.15 K | 0.0009 | 2.025
313.15 K | 0.0012 | 1.619
323.15 K | 0.0015 | 1.433

CS(C)=O + COCCOCCn1cc[n+](CCC#N)c1.O=S(=O)([N-]S(=O)(=O)C(F)(F)F)C(F)(F)F
x2 = 0
Conditions | electrical conductivity [S/m] | viscosity [mPa·s]
293.15 K | 0.0006 | 2.479
303.15 K | 0.0009 | 2.025
313.15 K | 0.0012 | 1.619
323.15 K | 0.0015 | 1.433

CCOCC[n+]1ccn(CCC#N)c1.O=S(=O)([N-]S(=O)(=O)C(F)(F)F)C(F)(F)F + CS(C)=O
Conditions | electrical conductivity, 293.15 K [S/m] | electrical conductivity, 303.15 K [S/m] | electrical conductivity, 313.15 K [S/m] | electrical conductivity, 323.15 K [S/m] | viscosity, 293.15 K [mPa·s] | viscosity, 303.15 K [mPa·s] | viscosity, 313.15 K [mPa·s] | viscosity, 323.15 K [mPa·s]
x1 = 0.0989 | 0.0011 | 0.0013 | 0.0016 | – | 8.21 | 5.53 | 4.312 | –
x1 = 0.1981 | 0.004 | 0.0048 | 0.0061 | – | 10.18 | 7.07 | 5.24 | –
x1 = 0.2776 | 0.0096 | 0.0117 | 0.0152 | 0.0204 | 16.76 | 11.64 | 8.48 | 6.42
x1 = 0.3971 | 0.0179 | 0.0218 | 0.0282 | – | 25.7 | 17 | 12.01 | –
x1 = 0.5029 | 0.0284 | 0.0351 | 0.0457 | – | 40.9 | 28 | 18.99 | –
x1 = 0.597 | – | 0.0477 | 0.063 | 0.0866 | – | 38.6 | 26.33 | 18.01
x1 = 0.721 | 0.0472 | – | 0.0763 | – | 72.2 | – | 28.66 | –
x1 = 0.798 | – | 0.0985 | 0.13 | 0.188 | – | 57.8 | 36.8 | 28.6
x1 = 0.89 | – | 0.0843 | 0.119 | 0.165 | – | 124.2 | 78.2 | 56.6
x1 = 1 | 0.057 | 0.0705 | 0.0957 | 0.14 | 401 | 235.6 | 146.2 | 105
